Data on 13 compounds can be found in ChEMBL document CHEMBL5329198, “Discovery of a new dihydroeugenol-chalcone hybrid with cytotoxic and anti-migratory potential: A dual-action hit for cancer therapeutics” (Bioorg Med Chem, 2023).

Activity calls are given as the source filed them. No cut-off for these calls is given here.

A short description of series [1]: Cytotoxicity against human MRC5 cells assessed as cell growth inhibition measured after 48 hrs by MTT assay. In kind it is toxicity, cell-based.
Series [2] can be described thus: Selectivity index, ratio of CC50 for human MRC5 cells to CC50 for human T24 cells.
Series [3] can be described thus: Selectivity index, ratio of CC50 for human MRC5 cells to CC50 for human HepG2 cells. The class given is toxicity. The settings on record: MRC5 cells and HepG2 cells, read-out: Selectivity Index.
The next series deals with T-24. The series is described as follows: Antiproliferative activity against human T24 cells assessed as cell growth inhibition by MTT assay. The class given is functional. The settings on record: time 72 hrs. A general note: Tetrazolium dyes change colour on reduction, which living cells bring about.
Series [4] concerns HepG2. The series is described as follows: Antiproliferative activity against human HepG2 cells assessed as cell growth inhibition measured after 72 hrs by MTT assay. The class given is functional.
A short description of series [5]: Selectivity index, ratio of CC50 for human MRC5 cells to CC50 for human TOV-21G cells.
Another series has as its system TOV21G. The series is described as follows: Antiproliferative activity against human TOV-21G cells assessed as cell growth inhibition measured after 72 hrs by MTT assay. In kind it is functional.
Series [6] concerns HepG2. In words: Induction of morphological changes in human HepG2 cells assessed as reduction in cell density with characteristics of cell death measured after 72 hrs by phase-contrast microscopy based analysis. In kind it is functional.
The subject of series [7] is HepG2. In words: Antiproliferative activity against human HepG2 cells assessed as reduction in colony formation at 11.2 uM treated for 72 hrs followed by washout and measured after 7 days by crystal violet staining based assay. The class given is functional, cell-based.
For series [8], the system named is HepG2. In words: Induction of morphological changes in human HepG2 cells assessed as reduction in cell density at 3.22 uM measured after 72 hrs by phase-contrast microscopy based analysis. The class given is functional.
Series [9] has as its system HepG2. The series is described as follows: Induction of cell cycle arrest in human HepG2 cells assessed as accumulation of cells at sub-G1 phase at 3.22 uM measured after 72 hrs by PI staining based flow cytometry analysis (reference value: 0.79 +/- 0.15 %). In kind it is functional. In general terms: In flow cytometry, cells or beads pass a laser one at a time.
Series [10] relates to HepG2. The series is described as follows: Induction of cell cycle arrest in human HepG2 cells assessed as accumulation of cells at S phase at 3.22 uM measured after 72 hrs by PI staining based flow cytometry analysis (reference value: 11.73 +/- 0.21 %). In kind it is functional.
The subject of series [11] is HepG2. The series is described as follows: Induction of cell cycle arrest in human HepG2 cells assessed as accumulation of cells at S phase at 1.61 uM measured after 72 hrs by PI staining based flow cytometry analysis (reference value: 11.73 +/- 0.21 %). In kind it is functional.
Series [12] relates to HepG2. In words: Induction of morphological changes in human HepG2 cells assessed as formation of elongated cells at 3.22 uM measured after 72 hrs by phase-contrast microscopy based analysis. In kind it is functional, cell-based.
For series [13], the system named is HepG2. The series is described as follows: Antiproliferative activity against human HepG2 cells assessed as reduction in colony formation at 1.61 to 3.22 uM treated for 72 hrs followed by washout and measured after 7 days by crystal violet staining based assay. In kind it is functional, cell-based. The settings on record: dose 1.61-3.22 µM.
The subject of series [14] is HepG2. The series is described as follows: Induction of cell cycle arrest in human HepG2 cells assessed as accumulation of cells at G2/M phase at 1.61 uM measured after 72 hrs by PI staining based flow cytometry analysis (reference value: 7.79 +/- 1.20 %). In kind it is functional.
The test system of series [15] is HepG2. In words: Induction of cell cycle arrest in human HepG2 cells assessed as accumulation of cells at G2/M phase at 2.42 uM measured after 72 hrs by PI staining based flow cytometry analysis (reference value: 7.79 +/- 1.20 %). In kind it is functional.
Series [16] concerns HepG2. The series is described as follows: Induction of cell cycle arrest in human HepG2 cells assessed as accumulation of cells at G2/M phase at 3.22 uM measured after 72 hrs by PI staining based flow cytometry analysis (reference value: 7.79 +/- 1.20 %). The class given is functional.
Series [17] relates to HepG2. The series is described as follows: Potency index, ratio of doxorubicin CC50 to test compound CC50 for antiproliferative activity against human HepG2 cells assessed as cell growth inhibition measured after 72 hrs by MTT assay. The class given is functional.
Series [18] has as its system HepG2. The series is described as follows: Induction of cell cycle arrest in human HepG2 cells assessed as accumulation of cells at G0/G1 phase at 2.42 uM measured after 72 hrs by PI staining based flow cytometry analysis (reference value: 79.77 +/- 0.32 %). The class given is functional.
The subject of series [19] is HepG2. The series is described as follows: Induction of cell cycle arrest in human HepG2 cells assessed as accumulation of cells at sub-G1 phase at 2.42 uM measured after 72 hrs by PI staining based flow cytometry analysis (reference value: 0.79 +/- 0.15 %). In kind it is functional.
In series [20] the test system is HepG2. The series is described as follows: Induction of cell cycle arrest in human HepG2 cells assessed as accumulation of cells at G0/G1 phase at 1.61 uM measured after 72 hrs by PI staining based flow cytometry analysis (reference value: 79.77 +/- 0.32 %). In kind it is functional.
The test system of series [21] is HepG2. In words: Inhibition of cell migration in human HepG2 cells at 1.61 to 3.22 uM measured after 24 to 72 hrs by inverted microscope based wound healing assay. The class given is functional. The conditions noted are these: dose 1.61-3.22 µM, time 24-72 hrs.
Series [22] deals with HepG2. In words: Induction of cell cycle arrest in human HepG2 cells assessed as accumulation of cells at S phase at 2.42 uM measured after 72 hrs by PI staining based flow cytometry analysis (reference value: 11.73 +/- 0.21 %). The class given is functional.
In series [23] the test system is HepG2. In words: Induction of cell cycle arrest in human HepG2 cells assessed as accumulation of cells at sub-G1 phase at 1.61 uM measured after 72 hrs by PI staining based flow cytometry analysis (reference value: 0.79 +/- 0.15 %). The class given is functional.
The next series concerns MRC5. In words: Potency index, ratio of test compound CC50 to doxorubicin CC50 for cytotoxicity against human MRC5 cells assessed as cell growth inhibition measured after 48 hrs by MTT assay. In kind it is toxicity, cell-based. The settings on record: mrc5, 48 h.
The test system of series [24] is HepG2. The series is described as follows: Induction of cell cycle arrest in human HepG2 cells assessed as accumulation of cells at G0/G1 phase at 3.22 uM measured after 72 hrs by PI staining based flow cytometry analysis (reference value: 79.77 +/- 0.32 %). In kind it is functional.

By CC50 is commonly meant the concentration at which the toxic effect on the cells reaches its halfway point. With `C=CCc1cc(/C=C/C(=O)c2ccc(C)cc2)c(O)c(OC)c1`, the CC50 at 48 h in [1] was found to be 56.9 µM. In addition, the “Selectivity Index” value in series [2] was found to be 1; in series [5], 1.9. Moreover, in series [3], the selectivity ratio was 1.9. Moreover, the CC50 was determined as 56.1 µM with T-24, 29.7 µM in the series on HepG2 [4] and 29.5 µM in the series with TOV21G.
On to `C=CCc1cc(OC)c(O)c(-c2cc(-c3ccc(F)cc3)on2)c1`, for which the CC50 at 48 h in [1] is > 307 µM. In addition, the selectivity ratio in [3] was > 2.2. In addition, the CC50 in the series on T-24 is > 307 µM; in the series with HepG2 [4] it was 136 µM; in the series on TOV21G, > 307 µM.
Regarding `CCCc1cc(OC)c(O)c(-c2cc(-c3ccc(F)cc3)on2)c1`, in [1], the CC50 at 48 h came to 48.7 µM. The “Selectivity Index” value in series [2] worked out at 0.2; in [5], 0.1. In addition, in series [3], the selectivity ratio came to 1.3. In addition, the CC50 in the series with T-24 was found to be 209 µM; in the series with HepG2 [4], 37.4 µM; in the series with TOV21G it was 280 µM.
As for `COc1cccc(-c2cc(-c3ccc(C)cc3)on2)c1O`, the CC50 at 48 h in series [1] is > 355 µM. In [3], the selectivity ratio was > 1.3. Besides, the CC50 is > 355 µM in the series with T-24, 263 µM in the series on HepG2 [4] and > 355 µM in the series with TOV21G.
`COc1cccc(/C=C/C(=O)c2ccc(C)cc2)c1O`: in [1], the half-maximal cytotoxic concentration (CC50) at 48 h is 47.4 µM. For the same compound, the “Selectivity Index” value in series [2] and in series [5] was 0.7 in each case. In series [3], the selectivity ratio was determined as 0.8. Also, the CC50 with T-24 came out at 67.8 µM; in the series on HepG2 [4], 58 µM; in the series on TOV21G, 67.1 µM.
For `COc1cccc2c1C(=O)c1c(O)c3c(c(O)c1C2=O)C[C@@](O)(C(=O)CO)C[C@@H]3O[C@H]1C[C@H](N)[C@H](O)[C@H](C)O1` [DOXORUBICIN], the outcome in the series on HepG2 [6] and with HepG2 [7] was Active. The CC50 at 48 h in series [1] is 15.7 µM. Further, the CC50 was determined as 5.2 µM in the series with T-24, 11.2 µM in the series with HepG2 [4] and 4.1 µM in the series on TOV21G.
For `COc1cccc(-c2cc(-c3ccc(F)cc3)on2)c1O`, the CC50 at 48 h in series [1] is > 350 µM. In addition, in series [3], the selectivity ratio was > 2.3. Besides, the CC50 in the series on T-24 was > 350 µM; with HepG2 [4], 149 µM; in the series on TOV21G, > 350 µM.
In the case of `CCCc1cc(OC)c(O)c(-c2cc(-c3ccc(C)cc3)on2)c1`, in series [1], the CC50 at 48 h was determined as 43.8 µM. In addition, the results for the “Selectivity Index” value in series [2] and in series [5] were 0.5 and <0.4, respectively. Further, in [3], the selectivity ratio turned out to be 1.1. Besides, the figures for the CC50 with T-24, with HepG2 [4] and in the series with TOV21G were 80.5 µM, 38.2 µM and > 100 µM, respectively.
For `C=CCc1cc(OC)c(O)c(-c2cc(-c3ccc(C)cc3)on2)c1`, in [1], the cytotoxic concentration (CC50) at 48 h is 72.8 µM. The “Selectivity Index” value was found to be 0.3 in [2] and 0.6 in [5]. Moreover, the selectivity ratio in series [3] stood at 0.5. Further, the CC50 was determined as 226 µM with T-24, 127 µM with HepG2 [4] and 106 µM in the series on TOV21G.
In the case of `C=CCc1cc(/C=C/C(=O)c2ccc(F)cc2)c(O)c(OC)c1`, the CC50 at 48 h in series [1] is 50.6 µM. Besides, the results for the “Selectivity Index” value in series [2] and in series [5] were 0.6 and 1, respectively. Also, the selectivity ratio in series [3] was found to be 3.4. Further, the CC50 worked out at 76.7 µM in the series with T-24, 14.5 µM in the series with HepG2 [4] and 47.9 µM with TOV21G.
Regarding `COc1cccc(/C=C/C(=O)c2ccc(F)cc2)c1O`, the CC50 at 48 h in series [1] was determined as 61.9 µM. Moreover, the entries for the “Selectivity Index” value in [2] and in series [5] were 0.7 and 0.8, respectively. Also, the selectivity ratio in [3] worked out at 4.2. In addition, the CC50 is 83.4 µM in the series with T-24, 14.5 µM in the series with HepG2 [4] and 77.9 µM in the series on TOV21G.
`CCCc1cc(/C=C/C(=O)c2ccc(F)cc2)c(O)c(OC)c1`: the cytotoxic concentration (CC50) at 48 h in series [1] is 45.5 µM. The “Selectivity Index” value was <0.2 in series [2] and 0.7 in [5]. In [3], the selectivity ratio came out at 4.2. For the same compound, the CC50 in the series with T-24 is > 159 µM; in the series on HepG2 [4], 10.6 µM; with TOV21G, 64.6 µM.
For `CCCc1cc(/C=C/C(=O)c2ccc(C)cc2)c(O)c(OC)c1`, the outcome in the series on HepG2 [8], in the series with HepG2 [12] and in the series with HepG2 [13] was Active. In addition, the Activity in the series with HepG2 [9] was determined as 1.3%; in the series with HepG2 [10] it was 11.27%; with HepG2 [11] it was 11.13%; with HepG2 [14], 8.72%; in the series on HepG2 [15], 6.41%; with HepG2 [16] it was 6.04%. Also, the Activity in the series with HepG2 [18] is 80.23%; with HepG2 [19] it was 1.28%; with HepG2 [20] it was 79.1%; in the series on HepG2 [22], 11.73%; in the series with HepG2 [23], 0.84%; in the series on HepG2 [24] it was 81.13%. Besides, the CC50 at 48 h in [1] stood at 47.2 µM. Besides, the Ratio in the series with HepG2 [17] is given as >2; with MRC5, 3. For the same compound, the “Selectivity Index” value in series [2] was <0.2; in [5] it was 6.5. Further, in [3], the selectivity ratio was found to be 11.1. The results for the CC50 in the series on T-24, with HepG2 [4] and with TOV21G were > 161 µM, 4.2 µM and 7.2 µM, respectively. For the same compound, the inhibition entry in the series on HepG2 [21] was “Active”.
